Measurements published in patent US20260041639A1, “GEPOTIDACIN FORMULATION” (GLAXOSMITHKLINE INTELLECTUAL PROPERTY DEVELOPMENT LIMITED, priority 2022, published 2026).
In brackets after ≈: the same amount, converted by molar mass.

Assay: Solubility of API in water
Assay type: physicochemical
Details: 25 °C
Description: The skilled reader will readily appreciate that the granules of the disclosure rapidly disperse. It is therefore apparent that the physical properties of the API and in particular its solubility will have no impact on the dispersion time.

solubility [mg/mL]	Compound
175 (≈ 390 mM)	O=c1ccc2ncc(=O)n3c2n1C[C@H]3CN1CCC(NCc2cc3c(cn2)OCCC3)CC1 [gepotidacin, (2R)-2-({4-[(3,4-Dihydro-2H-pyrano[2,3-c]pyridin-6-ylmethyl)amino]-1-piperidinyl}methyl)-1,2-dihydro-3H,8H-2a,5,8a-triazaacenaphthylene-3,8-dione]
2.9 (≈ 7.15 mM)	C[C@H]1CO[C@@H]2Cn3cc(C(=O)NCc4ccc(F)cc4F)c(=O)c(O)c3C(=O)N12 [cabotegravir, (3R,6S)—N-[(2,4-difluorophenyl)methyl]-10-hydroxy-6-methyl-8,11-dioxo-4-oxa-1,7-diazatricyclo[7.4.0.03,7]trideca-9,12-diene-12-carboxamide]
